What was measured:
[1] = biological target: T1, cytochrome bc1 complex (Rsbc1), cyt b subunit (Cereibacter sphaeroides, UniProt Q02761); assay: cyt c reduction assay with purified bc1; Lineweaver-Burk kinetics; format: biochemical
T1 construct: gene petB; purified hexahistidine-tagged 4-subunit bc1 complex; with cyt c1, iron-sulfur protein (bc1 complex)
T1 sequence (Q02761 2-445): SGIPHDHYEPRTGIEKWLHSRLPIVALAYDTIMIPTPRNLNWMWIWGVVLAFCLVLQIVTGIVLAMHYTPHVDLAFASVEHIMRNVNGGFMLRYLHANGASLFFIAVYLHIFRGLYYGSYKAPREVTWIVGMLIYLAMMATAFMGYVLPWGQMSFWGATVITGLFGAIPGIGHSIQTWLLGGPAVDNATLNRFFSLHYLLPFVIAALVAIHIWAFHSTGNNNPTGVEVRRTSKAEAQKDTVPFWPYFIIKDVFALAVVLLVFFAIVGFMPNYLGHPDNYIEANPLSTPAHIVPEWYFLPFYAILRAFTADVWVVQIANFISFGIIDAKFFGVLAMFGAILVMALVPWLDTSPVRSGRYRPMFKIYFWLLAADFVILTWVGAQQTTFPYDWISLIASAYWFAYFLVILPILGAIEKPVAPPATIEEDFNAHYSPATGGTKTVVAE

[2] = biological target: T2, cytochrome bc1 complex (Btbc1), cyt b subunit (Bos taurus, UniProt P00157); assay: cyt c reduction assay with purified bc1; also difference spectra and Lineweaver-Burk kinetics; format: biochemical
T2 construct: gene MT-CYB; purified 11-subunit mitochondrial bc1 complex from beef heart; with cyt c1, iron-sulfur protein (bc1 complex)
T2 sequence (P00157 whole entry): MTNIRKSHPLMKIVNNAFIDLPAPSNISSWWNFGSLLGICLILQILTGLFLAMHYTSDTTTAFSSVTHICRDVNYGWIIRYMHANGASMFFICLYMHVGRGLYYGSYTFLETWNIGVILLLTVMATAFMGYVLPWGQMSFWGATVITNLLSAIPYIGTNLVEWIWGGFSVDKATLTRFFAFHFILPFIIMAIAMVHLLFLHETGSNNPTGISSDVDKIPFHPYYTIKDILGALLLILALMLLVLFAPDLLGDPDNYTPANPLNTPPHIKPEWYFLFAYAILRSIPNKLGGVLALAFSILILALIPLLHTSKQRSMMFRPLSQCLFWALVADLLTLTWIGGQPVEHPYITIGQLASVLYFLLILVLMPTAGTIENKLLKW
T2 sequence (P13272 79-274 partner): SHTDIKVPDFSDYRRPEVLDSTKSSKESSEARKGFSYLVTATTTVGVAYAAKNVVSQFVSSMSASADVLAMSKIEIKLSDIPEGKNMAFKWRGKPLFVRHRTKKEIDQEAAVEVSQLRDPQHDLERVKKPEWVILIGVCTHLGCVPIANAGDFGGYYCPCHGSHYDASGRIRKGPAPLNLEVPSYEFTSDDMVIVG
T2 sequence (P00125 85-325 partner): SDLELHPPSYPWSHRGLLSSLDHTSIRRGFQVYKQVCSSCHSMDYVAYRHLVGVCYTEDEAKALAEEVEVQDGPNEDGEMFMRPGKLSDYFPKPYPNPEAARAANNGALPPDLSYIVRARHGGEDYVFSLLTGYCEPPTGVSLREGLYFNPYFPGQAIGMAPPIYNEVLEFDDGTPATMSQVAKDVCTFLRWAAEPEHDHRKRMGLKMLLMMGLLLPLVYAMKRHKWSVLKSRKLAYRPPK

[3] = test system: T3, Complex III (cyt bc1 complex), cyt b subunit; assay: cyt c reduction with decylubiquinol in isolated mitochondria, […] inhibition at […]; format: cell-based, Phytophthora capsici; details: 4 µM
T3 construct: light mitochondrial fraction; with cyt c1, iron-sulfur protein (bc1 complex)

[4] = biological target: T2, cytochrome bc1 complex (Btbc1), cyt b subunit; assay: cyt c reduction assay with purified bc1; format: biochemical
[5] = biological target: T2, cytochrome bc1 complex (Btbc1), cyt b subunit; assay: Lineweaver-Burk kinetics at […]; difference spectra; single turnover; format: biochemical

CC(C)(C)c1ccc(/C(=C/C(=O)N2CCOCC2)c2ccnc(Cl)c2)cc1 [pyrimorph, (Z)-3-[(2-chloropyridine-4-yl)-3-(4-tert-butylphenyl)-acryloyl] morpholine]
IC50 [1]: 69.2 µM | IC50 [2]: 85 µM | percent inhibition [3]: 95.3

CO/C=C(/C(=O)OC)c1ccccc1Oc1cc(Oc2ccccc2C#N)ncn1 [azoxystrobin]
IC50 [4]: 0.0477 µM

CO/C(=C/C(N)=O)[C@H](C)[C@H](/C=C/c1csc(-c2csc([C@@H](C)/C=C/C=C/C(C)C)n2)n1)OC [myxothiazol]
Lineweaver-Burk kinetics at 30 and 50 nM; difference spectra; single turnover [5]: myxothiazol is a competitive inhibitor for the substrate quinol but a non-competitive inhibitor for cyt c

C/C=C(C)/C=C/C=C/[C@H](OC)[C@@H](C)[C@@H](OC)[C@@H](C)CCc1oc2c(O)c(OC)cc(OC)c2c(=O)c1C [stigmatellin]
IC50 [4]: 0.0028 µM

Reference: publication PMC3974799 (PLoS ONE, 2014)
